How the values were obtained:
[1] = tested on: uninfected H9 cells; assay: Metabolic labeling tests using uninfected H9 cells; type: cell-based, human; conditions: 0.1 to 100 μM
Protocol: Toxicity Studies. These analyses were conducted for both assay systems. Cell survival was determined by trypan-blue exclusion. The number of unstained cells/mL in the treated cultures was divided by the number of unstained cells/mL in the untreated control cultures and expressed as percent control. Protein synthesis was measured at the end of the treatment periods by metabolic labeling for 4 hrs with L-[4,5^3 H(N)]-leucine (2 μCi/mL media, specific activity =140 Ci/mmol). All cells contained in a given well of a 24 well plate were recovered by scraping, the protein precipitated by TCA (final concentration =10%) and the solution subsequently incubated at 100° C. for 5 min prior to passage over glass fiber filters (Whatman). In the case of the H-9 assay, treated or untreated cells were pulsed labeled at the conclusion of the 10 day incubation. For the MoMLV assay, labeling studies were performed on LZ1 virus producing cells at the conclusion of the 2 day treatment period. An additional control test was performed on NIH 3T3 cells that had never been exposed to virus but which had been incubated with media (± analog) for two days. DNA synthesis was assessed on day 10 of the H9 assay. Cells were labeled for 12 h with [5'-^3 H]thymidine (0.5 μCi/mL, specific activity =2 Ci/mmol). All the cells in a well were harvested by scraping, their nucleic acid precipitated with TCA (final concentration =10%), and then collected on glass fiber filters prior to counting.
The cellular toxicity of 13-oxamyristate was analyzed using three independent assays of cell viability. First, viable cell number was determined at the conclusion of the 10 day treatment period using trypan blue exclusion. The percentage of living cells in untreated, HIV-1 infected cultures was reduced by 50% compared to that of untreated, uninfected cells (FIG. 1D). This reflects the cytopathic effects encountered with this strain of HIV-1 [Ratner et al., Nature 313, 277-284 (1985)]. […] To further investigate this hypothesis, the effects of increasing concentrations of the analog on DNA and protein synthesis were determined.

[2] = tested on: MoMLV; assay: MoMLV replication: LZ1 virus titer by histochemical staining of NIH 3T3 cells for β-galactosidase; type: cell-based, Maloney murine leukemia virus; conditions: up to 100 μM, 2 day treatment of LZ1 cells
Text: Panel A -Schematic representation of the MoMLV assay system. […] This cell produces infectious, replication defective virus (designated (LZ1) which carries the LacZ gene. When NIH3T3 cells are exposed to supernatant taken from the LZ1 virus producing cells, they are initially infected and their progeny are detectable by histochemical staining for β-galactosidase. Thus, the titer of the virus produced by the LZ1 cells after treatment with the various agents, can be readily determined by counting the number of blue NIH3T3 cells. Replication competent MoMLV is not detected using this assay system since the lacZ gene product is not present. Panel B - The effect of 6-oxamyristic acid and 13-oxamyristic acid on LZ1 virus production. The results represent the mean (+1 standard deviation) of three independent tests each done in duplicate. Panel C - Number of viable LZ1 producing cells at the end of a 2 day treatment with analog as measured by trypan blue exclusion. The results of duplicate assays were averaged. Panel D - The effects of analog treatment on incorporation of [^3 H]leucine. Cells in duplicate wells were pulse labeled for 4 h following three days of incubation with analog or ethanol (0.1%). Duplicate assays were performed. The results were averaged and expressed as a percentage of the results obtained from untreated cells.
Assay of the Effects of Analogs on the Replication of Maloney Murine Leukemia Virus. The LZ1 titer assay was developed for rapid histochemical quantitation of infectious virus production. In brief, the LZ1 virus-producing cell line was derived by Sanes et al., EMBO J. 5, 3133-3142 (1986), from the .PSI.-2 cell line. .PSI.-2-cells are NIH 3T3 cells that contain a stably integrated packaging mutant (pMOV-.PSI.-) of MoMLV. This mutant has a deletion of 350 nucleotides between the 5' donor splice site for env and the initiator methionine codon for Pr65^gag [Mann et al., Cell 33, 153-159 (1983)]. The LZ1 cell line is a subclone of .PSI.-2 cells that were co-transfectd with pM-MuLV-SV-LacZ [Sanes et al., supra.]and pSVTK neoB and then selected for G418 (Geneticin®) antibiotic resistance and production of defective MoMLV containing the E. coli β-galactosidase gene [Sanes et al., supra.]. The recombinant virus produced by LZ1 cells is capable of primary infection of NIH 3T3 cells but is replication defective [Sanes et al., surpa.]. Infected NIH 3T3 containing the lac-Z gene can be identified by histochemical staining for β-galactosidase activity.
To assess the effects of analog treatment on MoMLV replication, 1 × 10^5 LZ1 producing cells were added to each well of a 24-well tissue culture plate in 1 mL of Dulbecco's Modified Eagle's medium (DME) containing calf serum (final concentration =10%), penicillin (100 IU/mL), streptomycin (100 μg/mL) with or without analog (10-100 μM). After 24 h, the media was removed and fresh serum-containing media ±analog was added. The next day (48 hours after plating), the virus containing supernatant was removed and passed through a 0.2 μm filter. Various size aliquots (25-100 μL of the 1 mL filtrate) were added to 1 × 10^4 NIH 3T3 cells contained in 1 mL of DME/10% calf serum/penicillin/streptomycin. These indicator cells had been plated 24 h earlier in 24 well tissue culture plates. Polybrene (Sigma) was added at the same time as the filtrate so that its final concentration was 10 μg/mL. […]

Compound: COCCCCCCCCCCCC(=O)O [13-oxamyristate, 12-(Methoxy)dodecanoic acid]
- DNA synthetic rates [1]: no significant effects
- growth rates [1]: no significant effects
- protein synthetic rates [1]: no significant effects
- effect on MoMLV replication [2]: no effect on virus replication
